In patent US10329283B2, “G protein-coupled receptor kinase inhibitors and methods for use of the same” (THE REGENTS OF THE UNIVERSITY OF MICHIGAN, priority 2015, dated 2019):
Where a name gives a salt, the structure may show the parent alone.

Experiments:
Format in all cases: biochemical
Settings in all cases: 50 nM GRK, 5 μM ATP, 500 nM bROS or tubulin, 5 min
GRK5 = GRK5 (Homo sapiens, UniProt P34947); test: GRK5 kinetic assay for inhibition of GRKs (phosphorimaging)
Method: (§1) The low salt concentration and DDM were used to maximize GRK activity and disrupt small molecule aggregates from forming, respectively. […] Data was analyzed and inhibition curves were fit via GraphPad Prism.

GRK2 = target: T1, GRK2 (Homo sapiens, UniProt P25098); test: GRK2 kinetic assay for inhibition of GRKs (phosphorimaging)
T1 sequence (P25098 1-689): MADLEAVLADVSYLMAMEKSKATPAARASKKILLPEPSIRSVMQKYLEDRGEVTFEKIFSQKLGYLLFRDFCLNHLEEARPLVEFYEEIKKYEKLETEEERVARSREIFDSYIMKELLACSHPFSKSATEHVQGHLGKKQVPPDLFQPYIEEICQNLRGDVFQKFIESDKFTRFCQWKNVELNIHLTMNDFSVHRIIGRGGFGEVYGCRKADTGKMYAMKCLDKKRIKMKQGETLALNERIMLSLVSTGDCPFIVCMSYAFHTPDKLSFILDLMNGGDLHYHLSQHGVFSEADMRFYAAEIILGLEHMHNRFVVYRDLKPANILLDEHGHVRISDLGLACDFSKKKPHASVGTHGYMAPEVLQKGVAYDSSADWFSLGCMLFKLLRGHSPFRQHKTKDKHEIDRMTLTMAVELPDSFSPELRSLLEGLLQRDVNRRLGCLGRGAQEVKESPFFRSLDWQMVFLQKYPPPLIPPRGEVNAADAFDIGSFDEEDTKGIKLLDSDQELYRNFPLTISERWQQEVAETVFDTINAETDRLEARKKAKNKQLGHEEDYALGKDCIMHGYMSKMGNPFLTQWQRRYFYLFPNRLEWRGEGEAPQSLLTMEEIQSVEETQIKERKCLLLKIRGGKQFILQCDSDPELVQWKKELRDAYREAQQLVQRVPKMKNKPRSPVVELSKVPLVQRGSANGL
Method: as §1

GRK1 = target: T2, GRK1 (Bos taurus, UniProt P28327); test: GRK1 kinetic assay for inhibition of GRKs (phosphorimaging)
T2 sequence (P28327 1-535 limits assumed): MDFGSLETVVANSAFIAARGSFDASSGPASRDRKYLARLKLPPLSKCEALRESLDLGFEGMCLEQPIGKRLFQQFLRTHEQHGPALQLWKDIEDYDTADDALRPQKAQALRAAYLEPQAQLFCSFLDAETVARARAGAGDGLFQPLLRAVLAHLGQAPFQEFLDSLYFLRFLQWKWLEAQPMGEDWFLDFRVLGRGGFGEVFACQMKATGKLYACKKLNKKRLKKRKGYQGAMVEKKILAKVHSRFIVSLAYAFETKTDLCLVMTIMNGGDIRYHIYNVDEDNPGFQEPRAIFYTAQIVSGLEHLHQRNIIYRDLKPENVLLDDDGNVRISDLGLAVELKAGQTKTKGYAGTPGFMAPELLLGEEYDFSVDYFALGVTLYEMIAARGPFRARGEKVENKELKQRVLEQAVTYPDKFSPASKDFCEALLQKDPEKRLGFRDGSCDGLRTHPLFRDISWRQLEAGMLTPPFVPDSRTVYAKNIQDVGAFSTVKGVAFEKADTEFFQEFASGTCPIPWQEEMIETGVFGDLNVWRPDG
Method: as §1

GRK5, sequence (P34947 whole entry, species assumed): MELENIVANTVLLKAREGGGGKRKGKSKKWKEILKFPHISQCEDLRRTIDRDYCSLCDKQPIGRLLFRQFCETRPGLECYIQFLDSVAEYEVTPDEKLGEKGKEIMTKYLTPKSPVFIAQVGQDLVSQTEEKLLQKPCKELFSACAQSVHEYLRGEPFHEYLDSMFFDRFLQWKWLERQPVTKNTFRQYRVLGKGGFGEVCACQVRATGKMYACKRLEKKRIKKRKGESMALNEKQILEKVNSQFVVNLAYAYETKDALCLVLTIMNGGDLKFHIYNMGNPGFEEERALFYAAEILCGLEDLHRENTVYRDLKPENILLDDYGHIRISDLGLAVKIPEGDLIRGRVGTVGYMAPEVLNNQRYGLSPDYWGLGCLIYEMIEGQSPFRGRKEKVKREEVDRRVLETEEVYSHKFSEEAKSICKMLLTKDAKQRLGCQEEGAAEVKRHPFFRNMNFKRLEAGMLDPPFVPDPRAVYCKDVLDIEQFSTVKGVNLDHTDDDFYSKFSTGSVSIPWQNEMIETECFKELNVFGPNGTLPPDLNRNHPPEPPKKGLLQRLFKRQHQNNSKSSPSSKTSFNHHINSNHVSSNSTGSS

SMILES | IC50 (GRK5) | IC50 (GRK2) | IC50 (GRK1)
O=C(Cc1cc([C@@H]2CCNC[C@H]2COc2ccc3c(c2)OCO3)ccc1F)NCCc1cn[nH]c1 [Example E04, N-(2-(1H-pyrazol-4-yl)ethyl)-2-(5-((3S,4R)-3-((benzo[d][1,3]dioxol-5-yloxy)methyl)piperidin-4-yl)-2-fluorophenyl)acetamide hydrochloride] | > 100 µM | 0.62 µM | –
O=C(Cc1cc([C@@H]2CCNC[C@H]2COc2ccc3c(c2)OCO3)ccc1F)NCCc1ccccn1 [Example E03, 2-(5-((3S,4R)-3-((benzo[d][1,3]dioxol-5-yloxy)methyl)piperidin-4-yl)-2-fluorophenyl)-N-(2-(pyridin-2-yl)ethyl)acetamide hydrochloride] | > 100 µM | 3.65 µM | –
COc1ccccc1CNC(=O)Cc1cc([C@@H]2CCNC[C@H]2COc2ccc3c(c2)OCO3)ccc1F [Example E06, 2-(5-((3S,4R)-3-((benzo[d][1,3]dioxol-5-yloxy)methyl)piperidin-4-yl)-2-fluorophenyl)-N-(2-methoxybenzyl)acetamide hydrochloride] | > 100 µM | 0.64 µM | –
O=C(NCc1ccccn1)c1cc([C@@H]2CCNC[C@H]2COc2ccc3c(c2)OCO3)ccc1F [Example E07, 5-((3S,4R)-3-((benzo[d][1,3]dioxol-5-yloxy)methyl)piperidin-4-yl)-2-fluoro-N-(pyridin-2-ylmethyl)benzamide hydrochloride] | 15.2 µM | 0.44 µM | –
O=C(Cc1cc([C@@H]2CCNC[C@H]2COc2ccc3c(c2)OCO3)ccc1F)NCCc1c(F)cccc1F [Example E02, 2-(5-((3S,4R)-3-((benzo[d][1,3]dioxol-5-yloxy)methyl)piperidin-4-yl)-2-fluorophenyl)-N-(2,6-difluorophenethyl)acetamide hydrochloride] | > 100 µM | 0.42 µM | 95.3 µM
O=C(NCCc1cn[nH]c1)c1cc([C@@H]2CCNC[C@H]2COc2ccc3c(c2)OCO3)ccc1F [Example E08, N-(2-(1H-pyrazol-4-yl)ethyl)-5-((3S,4R)-3-((benzo[d][1,3]dioxol-5-yloxy)methyl)piperidin-4-yl)-2-fluorobenzamide hydrochloride] | > 100 µM | 1.75 µM | –
COc1ccccc1CNC(=O)c1cc([C@@H]2CCNC[C@H]2COc2ccc3c(c2)OCO3)ccc1F [Example E09, 5-((3S,4R)-3-((benzo[d][1,3]dioxol-5-yloxy)methyl)piperidin-4-yl)-2-fluoro-N-(2-methoxybenzyl)benzamide hydrochloride] | > 100 µM | 48.5 µM | –
Fc1ccc([C@@H]2CCNC[C@H]2COc2ccc3[nH]ncc3c2)cc1 [Example E18, 5-(((3S,4R)-4-(4-fluorophenyl)piperidin-3-yl)methoxy)-1H-indazole] | 12.8 µM | 0.07 µM | 65.7 µM
CN1CC[C@@H](c2ccc(F)cc2)[C@H](COc2ccc3[nH]ncc3c2)C1 [Example E32, 5-(((3S,4R)-4-(4-fluorophenyl)-1-methylpiperidin-3-yl)methoxy)-1H-indazole] | 33 µM | 0.29 µM | 51.8 µM
O=C(Cc1cc([C@@H]2CCNC[C@H]2COc2ccc3c(c2)OCO3)ccc1F)NCc1c(F)cccc1F [Example E01, 2-(5-((3S,4R)-3-((benzo[d][1,3]dioxol-5-yloxy)methyl)piperidin-4-yl)-2-fluorophenyl)-N-(2,6-difluorobenzyl)acetamide hydrochloride] | > 100 µM | 2.53 µM | > 100 µM

Further lines, results first:

IC50 (GRK5) | IC50 (GRK2) | IC50 (GRK1) | SMILES
14.8 µM | – | – | O=C(NCc1ncc[nH]1)c1cc([C@@H]2CCNC[C@H]2COc2ccc3c(c2)OCO3)ccc1F [Example E27, N-((1H-imidazol-2-yl)methyl)-5-((3S,4R)-3-((benzo[d][1,3]dioxol-5-yloxy)methyl)piperidin-4-yl)-2-fluorobenzamide]
61.9 µM | 12.5 µM | – | O=C(NCc1ccccc1C(F)(F)F)c1cc([C@@H]2CCNC[C@H]2COc2ccc3c(c2)OCO3)ccc1F [Example E10, 5-((3S,4R)-3-((benzo[d][1,3]dioxol-5-yloxy)methyl)piperidin-4-yl)-2-fluoro-N-(2-(trifluoromethyl)benzyl)benzamide hydrochloride]
56.4 µM | 1.01 µM | 11.3 µM | Cc1cccc(C)c1CNC(=O)c1cc([C@@H]2CCNC[C@H]2COc2ccc3c(c2)OCO3)ccc1F [Example E13, 5-((3S,4R)-3-((benzo[d][1,3]dioxol-5-yloxy)methyl)piperidin-4-yl)-N-(2,6-dimethylbenzyl)-2-fluorobenzamide hydrochloride]
> 100 µM | – | – | O=C(NCCc1ccccn1)c1cc([C@@H]2CCNC[C@H]2COc2ccc3c(c2)OCO3)ccc1F [Example E23, 5-((3S,4R)-3-((benzo[d][1,3]dioxol-5-yloxy)methyl)piperidin-4-yl)-2-fluoro-N-(2-(pyridin-2-yl)ethyl)benzamide]
76.3 µM | – | – | O=C(NCc1cccnc1)c1cc([C@@H]2CCNC[C@H]2COc2ccc3c(c2)OCO3)ccc1F [Example E21, 5-((3S,4R)-3-((benzo[d][1,3]dioxol-5-yloxy)methyl)piperidin-4-yl)-2-fluoro-N-(pyridin-3-ylmethyl)benzamide]
> 100 µM | – | – | O=C(NCc1ccncc1)c1cc([C@@H]2CCNC[C@H]2COc2ccc3c(c2)OCO3)ccc1F [Example E22, 5-((3S,4R)-3-((benzo[d][1,3]dioxol-5-yloxy)methyl)piperidin-4-yl)-2-fluoro-N-(pyridin-4-ylmethyl)benzamide]
45.5 µM | – | – | O=C(NCc1c(F)cccc1F)c1cc([C@@H]2CCNC[C@H]2COc2ccc3c(c2)OCO3)ccc1F [Example E11, 5-((3S,4R)-3-((benzo[d][1,3]dioxol-5-yloxy)methyl)piperidin-4-yl)-N-(2,6-difluorobenzyl)-2-fluorobenzamide hydrochloride]
> 100 µM | – | – | O=C(NCCc1cccnc1)c1cc([C@@H]2CCNC[C@H]2COc2ccc3c(c2)OCO3)ccc1F [Example E25, 5-((3S,4R)-3-((benzo[d][1,3]dioxol-5-yloxy)methyl)piperidin-4-yl)-2-fluoro-N-(2-(pyridin-3-yl)ethyl)benzamide]
33.6 µM | 1.21 µM | 16.6 µM | O=C(NCc1c(Cl)cccc1Cl)c1cc([C@@H]2CCNC[C@H]2COc2ccc3c(c2)OCO3)ccc1F [Example E16, 5-((3S,4R)-3-((benzo[d][1,3]dioxol-5-yloxy)methyl)piperidin-4-yl)-N-(2,6-dichlorobenzyl)-2-fluorobenzamide hydrochloride]
41.1 µM | 0.77 µM | 23.6 µM | O=C(NCc1c(C(F)(F)F)cccc1C(F)(F)F)c1cc([C@@H]2CCNC[C@H]2COc2ccc3c(c2)OCO3)ccc1F [Example E14, 5-((3S,4R)-3-((benzo[d][1,3]dioxol-5-yloxy)methyl)piperidin-4-yl)-N-(2,6-bis(trifluoromethyl)benzyl)-2-fluorobenzamide hydrochloride]
> 100 µM | – | – | O=C(NCCc1c[nH]cn1)c1cc([C@@H]2CCNC[C@H]2COc2ccc3c(c2)OCO3)ccc1F [Example E28, N-(2-(1H-imidazol-4-yl)ethyl)-5-((3S,4R)-3-((benzo[d][1,3]dioxol-5-yloxy)methyl)piperidin-4-yl)-2-fluorobenzamide]
> 100 µM | – | – | O=C(NCCc1ccncc1)c1cc([C@@H]2CCNC[C@H]2COc2ccc3c(c2)OCO3)ccc1F [Example E24, 5-((3S,4R)-3-((benzo[d][1,3]dioxol-5-yloxy)methyl)piperidin-4-yl)-2-fluoro-N-(2-(pyridin-4-yl)ethyl)benzamide]
84.3 µM | – | – | O=C(NCc1ccccc1)c1cc([C@@H]2CCNC[C@H]2COc2ccc3c(c2)OCO3)ccc1F [Example E19, 5-((3S,4R)-3-((benzo[d][1,3]dioxol-5-yloxy)methyl)piperidin-4-yl)-N-benzyl-2-fluorobenzamide]
> 100 µM | – | – | O=C(NCCc1ccccc1)c1cc([C@@H]2CCNC[C@H]2COc2ccc3c(c2)OCO3)ccc1F [Example E20, 5-((3S,4R)-3-((benzo[d][1,3]dioxol-5-yloxy)methyl)piperidin-4-yl)-2-fluoro-N-phenethylbenzamide]
